US6852741B2, “Compositions and methods for treatment of neurological disorders” (University of Florida, priority 2001, dated 2005)

What was measured:
[1] = biological target: T1, α3β4(6′F10′T) nicotinic acetylcholine receptor (Rattus norvegicus, UniProt P04757+P12392, A272T/S268F); assay: Two-electrode voltage clamp of Xenopus oocytes expressing mutant α3β4(6′F10′T) receptors; format: cell-based; details: for Effect of hyperpolarized holding potential on residual inhibition: −100 mV versus −50 mV; for Residual inhibition of mutant compared with wild-type receptor: after 5 minute wash
T1 construct: expressed in transfected cells; host or cells: Xenopus laevis oocytes injected with subunit cRNAs; mutant made by QuikChange site-directed mutagenesis
Protocol: cDNA clones. […] The sequences of the TM2 domains of the relevant subunits are shown below.
Construction of site-directed mutants. Site-directed mutagenesis was conducted with […] kits ([…], LaJolla, Calif.). In brief, two complimentary oligonucleotides were synthesized which contain the desired mutation flanked by 10-15 bases of unmodified nucleotide sequence. Using a thermal cycler, Pfu DNA polymerase extended the sequence around the whole vector, generating a plasmid with staggered nicks. […] After 12-16 cycles, the product was treated with Dpn I, which digested the methylated parent DNA into numerous small pieces. The product was then transformed into E. coli cells, which repaired the nicks. Mutations were confirmed by DNA sequencing.
(§1) Preparation of RNA. After linearization and purification of cloned cDNAs, RNA transcripts were prepared in vitro using the appropriate mMessage mMachine kit from AMBION Inc. (Austin, Tex.).
(§2) Expression in Xenopus oocytes. Mature (>9 cm) female Xenopus laevis African toads (NASCO, Ft. Atkinson, Wis.) were used as a source of oocytes. Prior to surgery, frogs were anesthetized by placing the animal in a 1.5 g/L solution of MS222 (3-aminobenzoic acid ethyl ester). Eggs were removed from an incision made in the abdomen. […] Subsequently, stage 5 oocytes were isolated and injected with 50 nl (5-20 ng) each of a mixture of the appropriate subunit cRNAs following harvest. Recordings were made 1 to 7 days after injection depending on the cRNAs being tested.
(§3) Electrophysiology. […] Data were acquired using Labview software (NATIONAL INSTRUMENTS) or pClamp8 (AXON INSTRUMENTS) and filtered at a rate of 6 Hz. […] A Mariotte flask filled with Ringer's solution was used to maintain a constant hydrostatic pressure for drug deliveries and washes. Drugs were diluted in perfusion solution and loaded into a 2 ml loop at the terminus of the perfusion line. A bypass of the drug-loading loop allowed bath solution to flow continuously while the drug loop was loaded, and then drug application was synchronized with data acquisition by using a 2-way electronic valve. The rate of bath solution exchange and all drug applications was 6 ml/min. Current electrodes were filled with a solution containing 250 mM CsCl, 250 mM CsF and 100 mM EGTA and had resistances of 0.5-2 MΩ. Voltage electrodes were filled with 3 M KCl and had resistances of 1-3 MΩ.
(§4) Experimental protocols and data analysis. Current responses to drug application were studied under two-electrode voltage clamp at a holding potential of −50 mV unless otherwise noted. Holding currents immediately prior to agonist application were subtracted from measurements of the peak response to agonist.
(§5) The ratio of C2/C1 is referred to as the recovery response (FIGS. 2B, 3B and 3D). Measurements of C2/C1 that were <0.75 were taken to indicate that the experimental drug application produced some form of residual inhibition. An oocyte was not used for further experimental drug applications when the measurements of C2/C 1 became less than 0.75.
(§6) Means and standard errors (SEM) were calculated from the normalized responses of at least four oocytes for each experimental concentration. For concentration-response relations (FIGS. 2 & 3), data were plotted using Kaleidagraph 3.0.2 (ABELBECK SOFTWARE; Reading, Pa.), and curves were generated from the Hill equation. [formula]
(§7) In Formula I, Imax denotes the maximal response for a particular agonist/subunit combination, and n represents the Hill coefficient. Imax, n, and the EC50 were all unconstrained for the fitting procedures.
(§8) The values for the C2/C1 ratios were plotted as functions of the experimental agonist concentrations applied between the C2 and C1 control responses. The data were then fit to the Hill equation with n constrained to equal −1 for the calculation of IC50 values.

[2] = biological target: T2, α3β4 nicotinic acetylcholine receptor (Rattus norvegicus, UniProt P04757+P12392); assay: Two-electrode voltage clamp of Xenopus oocytes expressing wild-type α3β4 receptors; format: cell-based; details: for Protection from residual inhibition produced by 100 μM DMXB: pre-treatment and co-application, 100 μM ACh control after 5 minute wash
T2 construct: expressed in transfected cells; host or cells: Xenopus laevis oocytes injected with subunit cRNAs
Protocol: as §1, §2, §3, §4, §5, §6, §7
as §8, with “values. Determination of significant differences between experimental and control groups (FIGS. 4A-4B and 5A-5D) was made by t-test (unpaired two-tailed).” for “values.”

[3] = Hill fit of peak currents, holding potential −50 mV

T2 sequence (P04757 26-499): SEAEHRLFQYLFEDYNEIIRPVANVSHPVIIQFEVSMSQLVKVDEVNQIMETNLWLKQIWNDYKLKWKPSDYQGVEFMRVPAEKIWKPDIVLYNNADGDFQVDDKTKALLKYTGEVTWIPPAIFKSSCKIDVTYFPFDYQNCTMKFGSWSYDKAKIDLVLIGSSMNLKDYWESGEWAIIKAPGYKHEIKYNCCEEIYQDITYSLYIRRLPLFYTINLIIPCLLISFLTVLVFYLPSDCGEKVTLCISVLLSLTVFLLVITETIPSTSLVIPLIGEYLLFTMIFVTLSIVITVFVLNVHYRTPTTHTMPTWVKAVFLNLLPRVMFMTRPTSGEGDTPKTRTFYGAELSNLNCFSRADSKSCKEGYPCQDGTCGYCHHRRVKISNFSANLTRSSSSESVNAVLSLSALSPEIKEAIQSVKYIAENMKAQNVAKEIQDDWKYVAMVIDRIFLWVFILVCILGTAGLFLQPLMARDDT
T2 sequence (P12392 21-495): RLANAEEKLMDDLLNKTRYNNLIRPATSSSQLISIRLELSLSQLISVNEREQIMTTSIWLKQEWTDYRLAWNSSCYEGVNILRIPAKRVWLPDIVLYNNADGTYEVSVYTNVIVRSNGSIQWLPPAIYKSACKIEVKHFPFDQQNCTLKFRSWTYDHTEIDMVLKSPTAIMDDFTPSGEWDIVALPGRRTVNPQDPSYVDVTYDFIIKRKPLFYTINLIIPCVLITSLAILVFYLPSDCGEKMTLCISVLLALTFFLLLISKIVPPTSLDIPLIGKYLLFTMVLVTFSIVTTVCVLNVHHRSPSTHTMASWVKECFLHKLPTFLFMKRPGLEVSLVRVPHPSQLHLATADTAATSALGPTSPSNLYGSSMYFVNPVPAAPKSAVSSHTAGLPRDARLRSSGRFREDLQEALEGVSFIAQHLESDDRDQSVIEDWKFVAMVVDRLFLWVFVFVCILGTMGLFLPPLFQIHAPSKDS
T1 sequence (P04757 26-499): as the sequence (P04757 26-499) above
T1 sequence (P12392 21-495 S268F/A272T): as the sequence (P12392 21-495) above, with S248F, A252T counted along it

## CN1CCCC1c1cccnc1 (single isomer, unassigned; (-)) [Nicotine, (−)-Nicotine]
[1]; Hill fit of peak currents
  n (Hill coefficient): 0.8 ± 0.3
[1]; repeated applications, data not shown
  Persistence of residual inhibition: up to an hour
[1]
  Effect of hyperpolarized holding potential on residual inhibition: enhanced
[2]; Hill fit of peak currents
  n (Hill coefficient): 1.2 ± 0.2

## COc1ccc(/C=C2\CCCN=C2c2cccnc2)c(OC)c1 [DMXB, 3-[2,4-dimethoxybenzylidene]-anabaseine]
[1]
  IC50: 23 ± 17 µM
  Residual inhibition of mutant compared with wild-type receptor: more inhibition after it was applied at 100 or 300 μM
  Effect of hyperpolarized holding potential on residual inhibition: enhanced
[1]; 30 μM DMXB co-applied with 100 μM ACh
  Response to 100 μM ACh when co-applied with DMXB: 13±2%
[1]; 30 μM DMXB co-applied with ACh
  Effect of ACh co-application on DMXB-induced residual inhibition: large increase in the residual inhibition
[2]
  IC50: 121 ± 48 µM
[2]; 100 μM DMXB co-applied with 100 μM ACh
  Activation on co-application with 100 μM ACh, relative to ACh alone: 4±0.2%
[2]; DMXB co-applied with 100 μM ACh
  Effect of ACh co-application on DMXB-induced inhibition: not enhanced
[2]; −100 mV versus −50 mV
  Effect of hyperpolarized holding potential on residual inhibition: enhanced

## CC[N+](CC)(CC)CC(=O)Nc1c(C)cccc1C [QX-314, 2-(triethylamino)-N-(2,6-dimethylphenyl)-acetamide]
[2]
  Protection from residual inhibition produced by 100 μM DMXB: neither of these agents provided any protection

## CNCC/C=C/c1cccnc1 [TC-2403, (E)-N-methyl-4-(3-pyridinyl)-3-butene-1-amine]
[1]; Hill fit of peak currents
  n (Hill coefficient): 2.1 ± 0.2
[1]; [3]
  Max response (relative to ACh Maximum): 0.38 ± 0.01
[1]; activation of peak currents
  EC50: 111 ± 5 µM
[1]; after 1 mM TC-2403, 5 minute wash
  Control ACh response after application, relative to pre-application control values: 70±6%
[1]
  Residual inhibition of mutant compared with wild-type receptor: no significant increase in residual inhibition at concentrations less than 1 mM
[1]; pre-treatment and co-application, p<0.01 for TC-2403
  Protection from residual inhibition produced by 100 μM DMXB: significant protection
[1]; pre-treatment and co-application, p<0.05 for TC-2403
  Protection from residual inhibition produced by 300 μM nicotine: significant protection
[2]; Hill fit of peak currents
  n (Hill coefficient): 2.1 ± 0.2
[2]; [3]
  Max response (relative to ACh Maximum): 0.09 ± 0.01
[2]; activation of peak currents
  EC50: 347 ± 12 µM
[2]
  Protection from residual inhibition produced by 100 μM DMXB: significant (p<0.05) reduction in the residual inhibition

## CCCCNc1ccc(C(=O)OCCN(C)C)cc1 [tetracaine]
[2]
  Protection from residual inhibition produced by 100 μM DMXB: neither of these agents provided any protection
